Measured values reported in US20120309821A1, “Use of epigallocatechin-3-gallate for immune regulation” (NATIONAL DEFENSE MEDICAL CENTER, priority 2011, published 2012).

What was measured:
Assay type in all cases: in vivo, mouse
[1] = tested on: superoxide anion; assay: Superoxide anion (ROS) levels in serum, urine and kidney; settings: 120 mg/kg by gavage daily, week 34
Experimental: (§1) Female NZB/W F1 mice were purchased from the Animal Center of the National Taiwan University (Taipei, Taiwan, ROC) and, at 12 weeks of age, were divided into two groups, one of which was given normal saline and served as the disease control, while the other was given 120 mg/kg body weight of EGCG (Ryss Lab, Inc., CA, USA) (this dose is a slight modification of those used in previous in vivo studies) by gavage daily till sacrificed at 34-weeks-old. 8-Week-old NZB/W F1 female mice (prior to onset of autoantibody production) were used as normal controls. Urine samples were collected in metabolic cages every 2 weeks and urine protein levels were measured, and serum samples were used to measure serum levels of blood urea nitrogen (BUN) and creatinine (Cr) as described previously (Ka, S. M. et al. Decoy receptor 3 ameliorates an autoimmune crescentic glomerulonephritis model in mice. J Am Soc Nephrol 18:2473-2485; 2007). All animal experiments were performed upon the ethical approval of the Institutional Animal Care and Use Committee of the National Defense Medical Center, Taiwan and according to the ethical rules in the NIH Guide for the Care and Use of Laboratory Animals. Kidney in situ superoxide anion production was determined by dihydroethidium (DHE) labeling. Fluorescent images were quantified by counting the percentage of positive nuclei in the total nuclei per kidney cross-section. Superoxide anion levels in serum and kidney tissues were measured as described previously and the results expressed as reactive luminescence units (RLU) per 15 min per milligram dry weight (i.e., RLU/15 min/mg dry weight).

[2] = tested on: IL-18; assay: Serum IL-18 ELISA; settings: 120 mg/kg by gavage daily; week 34; vs disease control mice
Experimental: as §1, with “Serum levels” for “Kidney in situ superoxide anion production was determined by dihydroethidium (DHE) labeling. Fluorescent images were quantified by counting the percentage”, “IL-1β” for “positive nuclei in the total nuclei per kidney cross-section. Superoxide anion levels in serum”, “IL-18” for “kidney tissues”, “using commercial ELISA kits (BD Biosciences) according to” for “as described previously and”, “manufacturer's instructions.” for “results expressed as reactive luminescence units (RLU) per 15 min per milligram dry weight (i.e., RLU/15 min/mg dry weight).”

[3] = tested on: NLRP3 mRNA; assay: Renal NLRP3 mRNA by real-time PCR; settings: 120 mg/kg by gavage daily; week 34; increase seen in disease control
Experimental: as §1, with “Animals.” for “Animals. Kidney in situ superoxide anion production was determined by dihydroethidium (DHE) labeling. Fluorescent images were quantified by counting the percentage of positive nuclei in the total nuclei per kidney cross-section. Superoxide anion levels in serum and kidney tissues were measured as described previously and the results expressed as reactive luminescence units (RLU) per 15 min per milligram dry weight (i.e., RLU/15 min/mg dry weight).”

With Epigallocatechin-3-gallate [EGCG] the “levels of superoxide anion in the kidney” value ([1]; kidney) was “inhibited”, the “superoxide anion levels in the serum” value ([1]; serum) was “decreased by EGCG treatment to levels similar to those in normal control mice” and the “superoxide anion levels in the urine” value ([1]; urine) was “decreased by EGCG treatment to levels similar to those in normal control mice”. The “serum levels of IL-18” value [2] was “significantly lower” and the “levels of NLRP3 mRNA in kidney tissues” value [3] was “inhibited”.
